According to PubChem BioAssay AID256 (DTP/NCI, 2004):
Values joined by “and” are separate entries in the source; they are usually repeats but may differ in a detail not shown here. Equal values may be shown once. Toxic doses and inconclusive results are not listed.

Tested on: CD2F1 mice, L1210 leukemia ip, survival T/C
Experiment: NCI In Vivo Anticancer Drug Screen. Data for tumor model L1210 Leukemia (intraperitoneal) in CD2F1 (CDF1) mice
Conditions: higher = longer survival
Outline: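 Vehicle-treated tumor-bearing mice served as controls (C) for compound-treated mice (T). Reported figure is T divided by C.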

[1] = endpoint: mean survival time, dose: 100.0 mg/kg/injection, schedule: Q01DX009 (ip), vehicle: saline
[2] = endpoint: mean survival time, dose: 100.0 mg/kg/injection, schedule: Q01DX009 (ip), vehicle: saline with Tween-80
[3] = endpoint: mean survival time, dose: 100.0 mg/kg/injection, schedule: Q04DX003 (ip), vehicle: saline with Tween-80
[4] = endpoint: mean survival time, dose: 200.0 mg/kg/injection, schedule: Q01DX009 (ip), vehicle: saline with Tween-80
[5] = endpoint: mean survival time, dose: 200.0 mg/kg/injection, schedule: Q04DX003 (ip), vehicle: saline with Tween-80
[6] = endpoint: mean survival time, dose: 400.0 mg/kg/injection, schedule: Q04DX003 (ip), vehicle: saline with Tween-80
[7] = endpoint: mean survival time, dose: 100.0 mg/kg/injection, schedule: Q04DX003 (ip), vehicle: Klucel (hydroxypropylcellulose) (HPC)
[8] = endpoint: mean survival time, dose: 200.0 mg/kg/injection, schedule: Q04DX003 (ip), vehicle: Klucel (hydroxypropylcellulose) (HPC)
[9] = endpoint: mean survival time, dose: 12.5 mg/kg/injection, schedule: Q01DX005 (ip), vehicle: other
[10] = endpoint: mean survival time, dose: 25.0 mg/kg/injection, schedule: Q01DX005 (ip), vehicle: other
[11] = endpoint: mean survival time, dose: 50.0 mg/kg/injection, schedule: Q01DX005 (ip), vehicle: other
[12] = endpoint: mean survival time, dose: 400.0 mg/kg/injection, schedule: Q01DX009 (ip), vehicle: saline with Tween-80

With `CCC(O)C[As](=O)(O)c1ccccc1OC` (stereo not drawn) the T/C (endpoint: mean survival time, dose: 6.25 mg/kg/injection, schedule: Q04DX003 (ip), vehicle: saline with Tween-80) was 97 % of control, the T/C (endpoint: mean survival time, dose: 12.5 mg/kg/injection, schedule: Q04DX003 (ip), vehicle: saline with Tween-80) was 97 % of control and the T/C (endpoint: mean survival time, dose: 25.0 mg/kg/injection, schedule: Q04DX003 (ip), vehicle: saline with Tween-80) was 103 % of control.
For `CCNC(C)(C)C(SSSC(c1ccc(C(F)(F)F)cc1)C(C)(C)NCC)c1ccc(C(F)(F)F)cc1` (stereo not drawn), the T/C [1] was 90 % of control.
`CCCCCC(CN(C)C)C(/C=C/c1ccccc1)OC(=O)c1ccc([N+](=O)[O-])cc1` (stereo not drawn) was tested, and the T/C [2] was 97 % of control, the T/C [3] was 90 % of control and the T/C [4] was 100 % of control. The T/C [5] was 105 % of control and the T/C [6] was 106 % of control.
For `Nc1ncnc2c1nnn2C1OC(CO)C(O)C1O` (stereo not drawn), the T/C (endpoint: mean survival time, dose: 10.0 mg/kg/injection, schedule: Q01DX009 (ip), vehicle: Klucel (hydroxypropylcellulose) (HPC)) was 110 % of control, the T/C (endpoint: mean survival time, dose: 15.0 mg/kg/injection, schedule: Q01DX009 (ip), vehicle: Klucel (hydroxypropylcellulose) (HPC)) was 107 % of control and the T/C (endpoint: mean survival time, dose: 28.0 mg/kg/injection, schedule: Q01DX009 (ip), vehicle: Klucel (hydroxypropylcellulose) (HPC)) was 121 % of control. The T/C (endpoint: mean survival time, dose: 63.0 mg/kg/injection, schedule: Q01DX009 (ip), vehicle: Klucel (hydroxypropylcellulose) (HPC)) was 115 % of control.
With `C#CCCCOC(=O)Nc1ccccc1` the T/C [7] was 97 % of control and the T/C [8] was 95 % of control.
In the case of `N#CC(C#N)=Cc1cccc2ccccc12`, the T/C (endpoint: mean survival time, dose: 50.0 mg/kg/injection, schedule: Q04DX003 (ip), vehicle: Klucel (hydroxypropylcellulose) (HPC)) is reported as 98 % of control, the T/C [7] is reported as 103 % of control and the T/C [8] is reported as 101 % of control.
For `COc1ccc(/C=N/NC(=O)c2ccccc2)cc1OC`, the T/C (endpoint: mean survival time, dose: 12.5 mg/kg/injection, schedule: Q01DX009 (ip), vehicle: other) was 98 % of control, the T/C (endpoint: mean survival time, dose: 25.0 mg/kg/injection, schedule: Q01DX009 (ip), vehicle: other) was 105 % of control and the T/C (endpoint: mean survival time, dose: 50.0 mg/kg/injection, schedule: Q01DX009 (ip), vehicle: other) was 105 % of control. For the same compound, the T/C (endpoint: mean survival time, dose: 100.0 mg/kg/injection, schedule: Q01DX009 (ip), vehicle: other) was 107 % of control and the T/C (endpoint: mean survival time, dose: 200.0 mg/kg/injection, schedule: Q01DX009 (ip), vehicle: other) was 107 % of control.
In the case of `CCCCCCC/C=N/NC(=O)c1ccc[n+](C)c1`, the T/C (endpoint: mean survival time, dose: 100.0 mg/kg/injection, schedule: Q01DX001 (ip), vehicle: saline with Tween-80) is reported as 97 % of control and the T/C (endpoint: mean survival time, dose: 200.0 mg/kg/injection, schedule: Q01DX001 (ip), vehicle: saline with Tween-80) is reported as 97 % of control.
`O=C(O)C[N-]CC[N-]CC(=O)O.[Cl][Pt+2][Cl]` was tested, and the T/C (endpoint: mean survival time, dose: 6.25 mg/kg/injection, schedule: Q04DX003 (ip), vehicle: other) was 101 % of control, the T/C (endpoint: mean survival time, dose: 12.5 mg/kg/injection, schedule: Q04DX003 (ip), vehicle: other) was 100 % of control and the T/C (endpoint: mean survival time, dose: 25.0 mg/kg/injection, schedule: Q04DX003 (ip), vehicle: other) was 104 % of control. For the same compound, the T/C (endpoint: mean survival time, dose: 50.0 mg/kg/injection, schedule: Q04DX003 (ip), vehicle: other) was 109 % of control.
For `CSCc1cn(C2CC(O)C(CO)O2)c(=O)[nH]c1=O` (stereo not drawn), the T/C (endpoint: mean survival time, dose: 12.5 mg/kg/injection, schedule: Q01DX005 (ip), vehicle: water) was 95 % of control, the T/C (endpoint: mean survival time, dose: 25.0 mg/kg/injection, schedule: Q01DX005 (ip), vehicle: water) was 98 % of control and the T/C (endpoint: mean survival time, dose: 50.0 mg/kg/injection, schedule: Q01DX005 (ip), vehicle: water) was 98 % of control. For the same compound, the T/C (endpoint: mean survival time, dose: 100.0 mg/kg/injection, schedule: Q01DX005 (ip), vehicle: water) was 95 % of control and the T/C (endpoint: mean survival time, dose: 200.0 mg/kg/injection, schedule: Q01DX005 (ip), vehicle: water) was 95 % of control.
With `[Cl][Pt+2][Cl].[NH-]c1ccc(CC(=O)O)cc1[NH-]` the T/C (endpoint: mean survival time, dose: 3.13 mg/kg/injection, schedule: Q04DX003 (ip), vehicle: water) was 103 % of control, the T/C (endpoint: mean survival time, dose: 6.25 mg/kg/injection, schedule: Q04DX003 (ip), vehicle: water) was 105 % of control and the T/C (endpoint: mean survival time, dose: 12.5 mg/kg/injection, schedule: Q04DX003 (ip), vehicle: water) was 101 % of control. For the same compound, the T/C (endpoint: mean survival time, dose: 25.0 mg/kg/injection, schedule: Q04DX003 (ip), vehicle: water) was 116 % of control.
In the case of `COc1ccc2c(c1)CCc1cnn(C3OC(COC(C)=O)C(OC(C)=O)C(OC(C)=O)C3OC(C)=O)c1-2` (stereo not drawn), the T/C [9] is reported as 92 % of control, the T/C [10] is reported as 90 % of control and the T/C [11] is reported as 87 % of control.
In the case of `c1ccc(CN2CCOC2)cc1`, the T/C (endpoint: mean survival time, dose: 12.5 mg/kg/injection, schedule: Q01DX009 (ip), vehicle: saline) is reported as 95 % of control and 101 % of control, the T/C (endpoint: mean survival time, dose: 25.0 mg/kg/injection, schedule: Q01DX009 (ip), vehicle: saline) is reported as 97 % of control and 101 % of control and the T/C (endpoint: mean survival time, dose: 50.0 mg/kg/injection, schedule: Q01DX009 (ip), vehicle: saline) is reported as 100 % of control and 106 % of control. For the same compound, the T/C [1] was 104 % of control and 106 % of control and the T/C (endpoint: mean survival time, dose: 200.0 mg/kg/injection, schedule: Q01DX009 (ip), vehicle: saline) was 95 % of control and 106 % of control.
For `CCOP(=O)(OCC)C1=C(CC)CC1`, the T/C (endpoint: mean survival time, dose: 75.0 mg/kg/injection, schedule: Q01DX001 (ip), vehicle: other) was 98 % of control.
In the case of `CCN1C(=O)CC(O)C1=O` (stereo not drawn), the T/C (endpoint: mean survival time, dose: 100.0 mg/kg/injection, schedule: Q01DX001 (ip), vehicle: saline) is reported as 105 % of control, the T/C (endpoint: mean survival time, dose: 200.0 mg/kg/injection, schedule: Q01DX001 (ip), vehicle: saline) is reported as 103 % of control and the T/C (endpoint: mean survival time, dose: 400.0 mg/kg/injection, schedule: Q01DX001 (ip), vehicle: saline) is reported as 103 % of control.
For `c1ccc2c3c(ccc2c1)OCN(C12CC4CC(CC(C4)C1)C2)C3`, the T/C [2] was 96 % of control, the T/C [4] was 102 % of control and the T/C [12] was 90 % of control.
For `COc1cc(C=Nc2cc(Cl)c(O)c(Cl)c2)ccc1N(CCCl)CCCl`, the T/C (endpoint: mean survival time, dose: 12.5 mg/kg/injection, schedule: Q01DX001 (ip), vehicle: carboxymethylcellulose (CMC)) was 120 % of control and the T/C (endpoint: mean survival time, dose: 25.0 mg/kg/injection, schedule: Q01DX001 (ip), vehicle: carboxymethylcellulose (CMC)) was 155 % of control.
In the case of `CCCc1ccc(C(C)=O)cc1`, the T/C (endpoint: mean survival time, dose: 75.0 mg/kg/injection, schedule: Q04DX002 (ip), vehicle: saline with Tween-80) is reported as 112 % of control and the T/C (endpoint: mean survival time, dose: 150.0 mg/kg/injection, schedule: Q04DX002 (ip), vehicle: saline with Tween-80) is reported as 100 % of control.
`Cc1cccnc1F` was tested, and the T/C (endpoint: mean survival time, dose: 12.5 mg/kg/injection, schedule: Q01DX009 (ip), vehicle: saline with Tween-80) was 95 % of control, the T/C (endpoint: mean survival time, dose: 25.0 mg/kg/injection, schedule: Q01DX009 (ip), vehicle: saline with Tween-80) was 97 % of control and the T/C (endpoint: mean survival time, dose: 50.0 mg/kg/injection, schedule: Q01DX009 (ip), vehicle: saline with Tween-80) was 100 % of control. For the same compound, the T/C [3] was 93 % of control, the T/C [5] was 96 % of control and the T/C [6] was 96 % of control.
For `CC(/C=C/c1ccccc1)=Nc1ccccc1`, the T/C [3] was 106 % of control, the T/C [5] was 103 % of control and the T/C [6] was 106 % of control. The T/C (endpoint: median survival time, dose: 12.5 mg/kg/injection, schedule: Q01DX009 (ip), vehicle: saline with Tween-80) was 108 % of control, the T/C (endpoint: median survival time, dose: 25.0 mg/kg/injection, schedule: Q01DX009 (ip), vehicle: saline with Tween-80) was 98 % of control and the T/C (endpoint: median survival time, dose: 50.0 mg/kg/injection, schedule: Q01DX009 (ip), vehicle: saline with Tween-80) was 111 % of control. For the same compound, the T/C (endpoint: median survival time, dose: 100.0 mg/kg/injection, schedule: Q01DX009 (ip), vehicle: saline with Tween-80) was 107 % of control and the T/C (endpoint: median survival time, dose: 200.0 mg/kg/injection, schedule: Q01DX009 (ip), vehicle: saline with Tween-80) was 104 % of control.
For `N#CSc1ccc2c(ccn2C2OCC(O)C(O)C2O)c1` (stereo not drawn), the T/C [9] was 93 % of control, the T/C [10] was 93 % of control and the T/C [11] was 101 % of control.
`S=C1SCCN1Cc1ccccc1` was tested, and the T/C [2] was 104 % of control, the T/C [3] was 106 % of control and the T/C [4] was 101 % of control. The T/C [5] was 101 % of control, the T/C [12] was 104 % of control and the T/C [6] was 101 % of control.
With `CC(=O)OCC1OC(Nc2nncs2)C(OC(C)=O)C1OC(C)=O` (stereo not drawn) the T/C (endpoint: median survival time, dose: 12.5 mg/kg/injection, schedule: Q01DX005 (ip), vehicle: distilled water + Tween-80) was 97 % of control, the T/C (endpoint: median survival time, dose: 25.0 mg/kg/injection, schedule: Q01DX005 (ip), vehicle: distilled water + Tween-80) was 96 % of control and the T/C (endpoint: median survival time, dose: 50.0 mg/kg/injection, schedule: Q01DX005 (ip), vehicle: distilled water + Tween-80) was 102 % of control. The T/C (endpoint: median survival time, dose: 100.0 mg/kg/injection, schedule: Q01DX005 (ip), vehicle: distilled water + Tween-80) was 100 % of control and the T/C (endpoint: median survival time, dose: 200.0 mg/kg/injection, schedule: Q01DX005 (ip), vehicle: distilled water + Tween-80) was 100 % of control.
`CSCCC(NC=O)C(=O)O` (stereo not drawn) was tested, and the T/C (endpoint: mean survival time, dose: 12.5 mg/kg/injection, schedule: Q01DX001 (ip), vehicle: saline) was 98 % of control, the T/C (endpoint: mean survival time, dose: 25.0 mg/kg/injection, schedule: Q01DX001 (ip), vehicle: saline) was 93 % of control and the T/C (endpoint: mean survival time, dose: 50.0 mg/kg/injection, schedule: Q01DX001 (ip), vehicle: saline) was 106 % of control.
